This note sets out measurements from US7772252B2, “Heterocyclic substituted carbonyl derivatives and their use as dopamine D3 receptor ligands” (Aventis Pharmaceuticals Inc., priority 2001, dated 2010).

T1 sequence (P35462 whole entry): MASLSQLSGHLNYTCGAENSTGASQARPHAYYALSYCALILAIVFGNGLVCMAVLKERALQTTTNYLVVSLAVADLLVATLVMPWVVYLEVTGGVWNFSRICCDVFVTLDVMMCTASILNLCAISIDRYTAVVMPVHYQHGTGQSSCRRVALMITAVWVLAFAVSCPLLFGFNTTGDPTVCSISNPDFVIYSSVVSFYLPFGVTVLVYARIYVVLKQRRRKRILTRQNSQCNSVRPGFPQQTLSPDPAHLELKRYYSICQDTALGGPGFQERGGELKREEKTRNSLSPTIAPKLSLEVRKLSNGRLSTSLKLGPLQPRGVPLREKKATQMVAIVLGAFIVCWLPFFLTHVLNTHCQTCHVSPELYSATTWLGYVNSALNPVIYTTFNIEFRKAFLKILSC

This experiment has as its target T1, cloned human dopamine D3 receptors (Homo sapiens, UniProt P35462).
T1 construct: expressed in transfected cells; membrane homogenate
Put plainly: [N-Methyl-3H]Spiroperidol binding to cloned human dopamine D3 receptors. The settings on record: read-out: D3 Ki. A digest of the protocol: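 Stably transfected CHO cells expressing cloned human D3 receptor were used as membranes homogenized in 10% DMSO. Ligand was [N-methyl-3H]spiroperidol displacement.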
As for `Cn1nc(C2CCN(C[C@@H]3C[C@H]3C(=O)NCCCc3cccnc3)CC2)c2cccc(C(F)(F)F)c21` [compound 833092], the inhibitory constant (Ki) is 33.5 nM.

As for `O=C([C@@H]1C[C@H]1CN1CCN(c2csc3cc(C(F)(F)F)ccc23)CC1)N1CCC[C@@H](Cn2ccnc2)C1` [compound 833097], the Ki came out at 0.9 nM.

Regarding `O=C([C@@H]1C[C@H]1CN1CCN(c2csc3cc(C(F)(F)F)ccc23)CC1)N1CCC[C@H](Cn2ccnc2)C1` [compound 833098], the Ki worked out at 8.84 nM.

Regarding `COc1ccc2c(c1)c(N1CCN(C[C@@H]3C[C@H]3C(=O)NCCCN3CCCCC3)CC1)nn2C` [compound 833120], the inhibition constant Ki came out at 138 nM.

Regarding `COc1ccc2c(c1)c(N1CCN(C[C@@H]3C[C@H]3C(=O)N3CCN(C(C)C)CC3)CC1)nn2C` [compound 833122], the Ki was determined as 52.9 nM.

In the case of `COc1ccc2c(c1)c(N1CCN(C[C@@H]3C[C@H]3C(=O)N3CCC(n4ccnc4)CC3)CC1)nn2C` [compound 833123], the Ki was found to be 26.3 nM.

Turning to `COc1ccc2c(c1)c(N1CCN(C[C@@H]3C[C@H]3C(=O)N3CCN(Cc4ccc(Cl)cc4)CC3)CC1)nn2C` [compound 833124], the Ki is 26.8 nM.

As for `COc1ccc2c(c1)c(N1CCN(C[C@@H]3C[C@H]3C(=O)N3CCN(Cc4ccc(C)cc4)CC3)CC1)nn2C` [compound 833125], the Ki is 70.8 nM.

In the case of `CC(C)N1CCN(C(=O)[C@@H]2C[C@H]2CN2CCC(c3noc4ccsc34)CC2)CC1` [compound 833127], the inhibitory constant (Ki) was 79.6 nM.

In the case of `O=C([C@@H]1C[C@H]1CN1CCC(c2noc3ccsc23)CC1)N1CCN(Cc2ccc(Cl)cc2)CC1` [compound 833128], the inhibition constant Ki came to 26.7 nM.

Take `CC(C)(C)c1ccc(CCNC(=O)[C@@H]2C[C@H]2CN2CCC(c3noc4ccsc34)CC2)cc1` [compound 833129]: the Ki worked out at 95.3 nM.

In the case of `O=C(NCCc1cccc(C(F)(F)F)c1)[C@@H]1C[C@H]1CN1CCC(c2noc3ccsc23)CC1` [compound 833130], the Ki worked out at 8.85 nM.

For `O=C([C@@H]1C[C@H]1CN1CCC(c2noc3ccsc23)CC1)N1CCN(CCCc2ccccc2)CC1` [compound 833131], the Ki came to 16.8 nM.

For the compound `O=C([C@@H]1C[C@H]1CN1CCC(c2noc3ccsc23)CC1)N1CCN(Cc2ccc(F)cc2)CC1` [compound 833132], the Ki was determined as 108 nM.

Regarding `COc1ccc(CN2CCN(C(=O)[C@@H]3C[C@H]3CN3CCC(c4noc5ccsc45)CC3)CC2)cc1` [compound 833133], the inhibition constant (Ki) is 114 nM.

On to `COc1ccc2c(c1)c(N1CCN(C[C@@H]3C[C@H]3C(=O)NCC3CCNCC3)CC1)nn2C` [compound 833136], for which the Ki was 14.3 nM.

For `CC(C)(C)C(=O)O[C@H]1CC[C@H](NC(=O)[C@@H]2C[C@H]2CN2CCC(c3csc4c(C(F)(F)F)cccc34)CC2)CC1` [compound 833151], the Ki worked out at 11.2 nM.

For the compound `O=C(NCCCN1CCCCC1)[C@@H]1C[C@H]1CN1CCC(c2nn(-c3ccc(F)cc3)c3cc(F)ccc23)CC1` [compound 833157], the inhibitory constant (Ki) was 43.9 nM.

Turning to `O=C(NC1CCN(Cc2ccc(C(F)(F)F)cc2)CC1)[C@@H]1C[C@H]1CN1CCC(c2noc3ccsc23)CC1` [compound 833160], the Ki was 2.09 nM.

Consider `O=C([C@@H]1C[C@H]1CN1CCC(c2noc3ccsc23)CC1)N1CCN(CCc2cccs2)CC1` [compound 833163], for which the inhibition constant (Ki) came out at 17.5 nM.

`O=C([C@@H]1C[C@H]1CN1CCC(c2noc3ccsc23)CC1)N1CCC(n2ccnc2)CC1` [compound 833164]: the Ki stood at 52.5 nM.

For `O=C(NC1CCN(Cc2cc(F)cc(F)c2)CC1)[C@@H]1C[C@H]1CN1CCC(c2noc3ccsc23)CC1` [compound 833166], the Ki turned out to be 1.72 nM.

Regarding `O=C(NC1CCN(Cc2ccc(F)cc2F)CC1)[C@@H]1C[C@H]1CN1CCC(c2noc3ccsc23)CC1` [compound 833167], the Ki is 1.57 nM.

With `O=C(NC1CCN(Cc2cc(F)ccc2F)CC1)[C@@H]1C[C@H]1CN1CCC(c2noc3ccsc23)CC1` [compound 833168], the Ki turned out to be 3.11 nM.

Take `COc1ccc2c(c1)c(N1CCN(C[C@@H]3C[C@H]3C(=O)NCC3CCN(C(C)=O)CC3)CC1)nn2C` [compound 833197]: the Ki came to 45.4 nM.

Regarding `CC(C)(C)OC(=O)N1CCN(CCNC(=O)[C@@H]2C[C@H]2CN2CCN(c3csc4cc(C(F)(F)F)ccc34)CC2)CC1` [compound 833277], the Ki was 16.7 nM.

With `CC(C)(C)OC(=O)NCCN1CCN(C(=O)[C@@H]2C[C@H]2CN2CCN(c3csc4cc(C(F)(F)F)ccc34)CC2)CC1` [compound 833278], the Ki was 7.04 nM.

As for `O=C(NCCN1CCNCC1)[C@@H]1C[C@H]1CN1CCN(c2csc3cc(C(F)(F)F)ccc23)CC1` [compound 833322], the Ki was 12.8 nM.

In the case of `NCCN1CCN(C(=O)[C@@H]2C[C@H]2CN2CCN(c3csc4cc(C(F)(F)F)ccc34)CC2)CC1` [compound 833323], the Ki was found to be 3.46 nM.

Regarding `O=C(NCCCn1ccnc1)[C@@H]1C[C@H]1CN1CCN(c2nn(-c3ccc(OC(F)(F)F)cc3)c3ccsc23)CC1` [compound 833333], the Ki worked out at 8.11 nM.

On to `COc1c(F)ccc2c(C3CCN(CCC4(C(=O)NCCCN5CCCCC5)CC4)CC3)noc12` [compound 833365], for which the Ki turned out to be 166 nM.

In the case of `CC(C)(C)OC(=O)N1CC[C@@H](CNC(=O)[C@@H]2C[C@H]2CN2CCC(c3noc4ccsc34)CC2)C1` [compound 833373], the Ki was determined as 65.5 nM.

`CC(C)(C)OC(=O)N1CCC(CNC(=O)[C@@H]2C[C@H]2CN2CCC(c3noc4ccsc34)CC2)CC1` [compound 833375]: the inhibition constant Ki was 24.2 nM.

`COc1c(F)ccc2c(C3CCN(CCC4(C(=O)NCCCn5ccnc5)CC4)CC3)noc12` [compound 833378]: the inhibitory constant (Ki) turned out to be 23.7 nM.

Take `O=C(NC1CCN(Cc2ncc[nH]2)CC1)[C@@H]1C[C@H]1CN1CCC(c2noc3ccsc23)CC1` [compound 833382]: the inhibition constant Ki came to 2.32 nM.

On to `O=C(NC1CCNCC1)[C@@H]1C[C@H]1CN1CCC(c2noc3ccsc23)CC1` [compound 833383], for which the Ki worked out at 2.57 nM.

Consider `O=C(NC[C@@H]1CCNC1)[C@@H]1C[C@H]1CN1CCC(c2noc3ccsc23)CC1` [compound 833384], for which the Ki was 5.68 nM.

As to `O=C(NCC1CCNCC1)[C@@H]1C[C@H]1CN1CCC(c2noc3ccsc23)CC1` [compound 833386], the Ki stood at 36.5 nM.

As for `O=C(NCCCN1CCCCC1)C1(CCN2CCN(c3csc4cc(C(F)(F)F)ccc34)CC2)CC1` [compound 833475], the Ki is 22.4 nM.

Turning to `COc1c(F)ccc2c(C3CCN(CCC4(C(=O)N[C@H]5CC[C@H](O)CC5)CC4)CC3)noc12` [compound 833476], the inhibitory constant (Ki) came to 131 nM.

As to `Cc1ccc(CN2CCC(NC(=O)[C@@H]3C[C@H]3CN3CCC(c4noc5ccsc45)CC3)CC2)cc1` [compound 833482], the inhibition constant Ki was determined as 0.962 nM.

On to `O=C(NC1CCN(CC2CC2)CC1)[C@@H]1C[C@H]1CN1CCC(c2noc3ccsc23)CC1` [compound 833483], for which the inhibition constant Ki is 0.93 nM.

In the case of `O=C(NC1CCN(Cc2cccnc2)CC1)[C@@H]1C[C@H]1CN1CCC(c2noc3ccsc23)CC1` [compound 833485], the Ki turned out to be 2.99 nM.

As for `O=C([C@@H]1C[C@H]1CN1CCC(c2noc3ccsc23)CC1)N1CCC(CCN2CCCC2)CC1` [compound 833509], the Ki turned out to be 41.5 nM.

For the compound `O=C(NC1CCN(Cc2ccc(F)c(F)c2)CC1)[C@@H]1C[C@H]1CN1CCN(c2csc3cc(C(F)(F)F)ccc23)CC1` [compound 833512], the Ki was found to be 2.17 nM.

Usually Ki stands for the equilibrium dissociation constant of an inhibitor or competing ligand from its target.
